Assay results from patent US12636313B2, “Nutraceutical or pharmaceutical composition comprising iron pyrophosphate for treating and/or preventing iron deficiency conditions or diseases” (NEILOS S.R.L., priority 2019, dated 2026).

Experiments:
[1] = after 120 minutes in sham gastric environment, 0.1 M HCl, 37° C., 75 rpm, six replicates
Protocol: 1 g of sample was weighed and introduced into the container of the dissolving apparatus containing 900 mL of 0.1 M HCl. The dissolution was performed for 2 h at 37° C. and 75 rpm. After dissolution, 1 mL of sample was diluted to 50 mL with 0.1 M HCl. The preparation was performed in six replicates for each sample.

[2] = system: subjects with advanced cancer and plasma iron levels below 60 μg/dL; conditions: 30 mg/day, 30-day treatment, 42 subjects with advanced cancer; cited from earlier work

O=P([O-])([O-])OP(=O)([O-])[O-].O=P([O-])([O-])OP(=O)([O-])[O-].O=P([O-])([O-])OP(=O)([O-])[O-].[Fe+3].[Fe+3].[Fe+3].[Fe+3] [iron pyrophosphate as such, iron pyrophosphate]
amount of iron released [1]: 7.5 g per 100 g of formulation
ferritinaemia level [2]: enhanced
haemoglobinaemia level [2]: enhanced
side effects [2]: without appearance of side effects
sideraemia level [2]: enhanced
